# What was measured:
# TNF-alpha = TNF-alpha Quantification Assay (ELISA), LPS-stimulated RAW 264.7; assay type: cell-based; conditions: Mus musculus, RAW264.7; at 10 μM; read-out: TNFα: % inh.
# KRas G12D mutant = assay: Ras GTP Binding Domain Inhibition Assay (Ras Superfamily Assay); conditions: 20 μM compound; for KRas G12D mutant + SOS: % inh.: with SOS; for KRas G12D mutant: % inh.: without SOS
# In short: (§1)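 Binding of 100 nM fluorescent GTP (Cy3 or Cy5, 45 min, room temperature) was read after washes from plate-captured His-tagged protein. Beforehand, compounds at 20 μM or in dilution series for IC50 sat 3 h on the protein in Tris buffer pH 7.4 or 7.0 with 1% DMSO, Sos GEF optionally added for the last hour.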
# Rac-1 = biological target: T1, Rac-1 (Homo sapiens, UniProt P63000); assay: as above; conditions: read-out: Rac-1: % inh.
# T1 construct: made in house
# In short: as §1
# KRas wild type = assay: as above; conditions: 20 μM compound; for KRas wild type + SOS: % inh.: with SOS; for KRas wild type: % inh.: without SOS
# In short: as §1
# [1] = system: Smad2/Smad3 phosphorylation; assay: Phospho-Smad2/3 Inhibition Assay (western blot), Panc-1; assay type: cell-based, human; conditions: at 10 μM, Panc-1 pancreatic cancer cell line; starred symbols = activation
# In short: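 Western blotting of lysates (15-50 μg protein) read phosphorylation of Smad2 Ser465/467 and Smad3 Ser423/425. Before lysis, Panc-1 cells got 1 h of 10 ng/ml TGF-b1 following 3 h compound exposure at 37° C (10 μM final, or serial dilutions for IC50, 0.3% DMSO) after overnight 0.5% FBS starvation.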
Structure (SMILES),KRas G12D mutant + SOS: % inh. (KRas G12D mutant),KRas G12D mutant: % inh. (KRas G12D mutant),inhibition at 20 µM (Rac-1) [%],KRas wild type + SOS: % inh. (KRas wild type),KRas wild type: % inh. (KRas wild type),inhibition at 10 µM (TNF-alpha) [%],% inh of Smad2/3 phosphorylation in Panc-1 [1]
"CO[C@H]1CC[C@@H](Nc2nc(-c3nccn3C)nn3cc(-c4cccnc4)c(C)c23)C1 (racemic) [Compound 155, rac N-((1R,3S)-3-methoxy-cyclopentyl)-5-methyl-2-(1-methyl-1H-imidazol-2-yl)-6-(pyridin-3-yl)pyrrolo[2,1-f][1,2,4]triazin-4-amine]",A (A = 1-25% inhibition),A (A = 1-25% inhibition),1 to 25,A (A = 1-25% inhibition),A (A = 1-25% inhibition),0,A (A = 1-25% inhibition)
"Cc1c(-c2ccn(C3CC3)n2)cn2nc(-c3nccn3C)nc(Nc3ccccn3)c12 [Compound 143, 6-(1-Cyclopropyl-1H-pyrazol-3-yl)-5-methyl-2-(1-methyl-1H-imidazol-2-yl)-N-(pyridin-2-yl)pyrrolo[2,1-f][1,2,4]triazin-4-amine]",D (D = 76-100% inhibition),D (D = 76-100% inhibition),76 to 100,D (D = 76-100% inhibition),D (D = 76-100% inhibition),50 to 74,A (A = 1-25% inhibition)
"CO[C@@H]1CC[C@@H](Nc2nc(-c3nccn3C)nn3cc(-c4ccn(C)n4)c(C)c23)C1 (racemic) [Compound 132, rac N-((1R,3R)-3-Methoxycyclopentyl)-5-methyl-2-(1-methyl-1H-imidazol-2-yl)-6-(1-methyl-1H-pyrazol-3-yl)pyrrolo[2,1-f][1,2,4]triazin-4-amine]",A (A = 1-25% inhibition),B (B = 26-49% inhibition),1 to 25,0 (0 = 0% inhibition),B (B = 26-49% inhibition),0,A* (A* = 1-25% activation)
"Cc1c(-c2ccn(C)n2)cn2nc(-c3nccn3C)nc(Nc3cc(OCC(F)(F)F)ccn3)c12 [Compound 129, 5-Methyl-2-(1-methyl-1H-imidazol-2-yl)-6-(1-methyl-1H-pyrazol-3-yl)-N-(4-(2,2,2-trifluoroethoxy)pyridin-2-yl)pyrrolo[2,1-f][1,2,4]triazin-4-amine]",B (B = 26-49% inhibition),B (B = 26-49% inhibition),26 to 49,B (B = 26-49% inhibition),B (B = 26-49% inhibition),1 to 24,D* (D* = 76-100% activation)
"Cc1c(-c2ccn(C3CC3)n2)cn2nc(-c3nccn3C)nc(Nc3cc(O)ccn3)c12 [Compound 150, 2-((6-(1-Cyclopropyl-1H-pyrazol-3-yl)-5-methyl-2-(1-methyl-1H-imidazol-2-yl)pyrrolo[2,1-f][1,2,4]triazin-4-yl)amino)pyridin-4-ol]",D (D = 76-100% inhibition),D (D = 76-100% inhibition),50 to 75,D (D = 76-100% inhibition),D (D = 76-100% inhibition),0,A (A = 1-25% inhibition)

# Second part, led by results:
KRas G12D mutant + SOS: % inh. (KRas G12D mutant),KRas G12D mutant: % inh. (KRas G12D mutant),inhibition at 20 µM (Rac-1) [%],KRas wild type + SOS: % inh. (KRas wild type),KRas wild type: % inh. (KRas wild type),Structure (SMILES),inhibition at 10 µM (TNF-alpha) [%],% inh of Smad2/3 phosphorylation in Panc-1 [1]
C (C = 50-75% inhibition),D (D = 76-100% inhibition),76 to 100,B (B = 26-49% inhibition),D (D = 76-100% inhibition),"Cc1c(-c2ccn(C)n2)cn2nc(-c3nccn3C)nc(Nc3cc(OCCO)ncn3)c12 [Compound 101, 2-((6-((5-Methyl-2-(1-methyl-1H-imidazol-2-yl)-6-(1-methyl-1H-pyrazol-3-yl)pyrrolo[2,1-f][1,2,4]triazin-4-yl)amino)pyrimidin-4-yl)oxy) ethan-1-ol]",0,D* (D* = 76-100% activation)
C (C = 50-75% inhibition),C (C = 50-75% inhibition),50 to 75,A (A = 1-25% inhibition),C (C = 50-75% inhibition),"COc1cc(Nc2nc(-c3nccn3C)nn3cc(-c4ccn(C(F)F)n4)c(C)c23)ncn1 [Compound 98, 6-(1-(Difluoromethyl)-1H-pyrazol-3-yl)-N-(6-methoxypyrimidin-4-yl)-5-methyl-2-(1-methyl-1H-imidazol-2-yl)pyrrolo[2,1-f][1,2,4]triazin-4-amine]",0,D (D = 76-100% inhibition)
D (D = 76-100% inhibition),D (D = 76-100% inhibition),76 to 100,D (D = 76-100% inhibition),D (D = 76-100% inhibition),"COc1ccnc(Nc2nc(-c3nccn3C)nn3cc(-c4ccn(C)n4)c(C)c23)n1.Cl [Compound 114, N-(4-Methoxypyrimidin-2-yl)-5-methyl-2-(1-methyl-1H-imidazol-2-yl)-6-(1-methyl-1H-pyrazol-3-yl)pyrrolo[2,1-f][1,2,4]triazin-4-amine hydrochloride salt]",50 to 74,D* (D* = 76-100% activation)
C (C = 50-75% inhibition),C (C = 50-75% inhibition),50 to 75,B (B = 26-49% inhibition),C (C = 50-75% inhibition),"Cc1c(-c2ccn(C(C)C)n2)cn2nc(-c3nccn3C)nc(Nc3ncc[nH]3)c12 [Compound 125, N-(1H-Imidazol-2-yl)-6-(1-isopropyl-1H-pyrazol-3-yl)-5-methyl-2-(1-methyl-1H-imidazol-2-yl)pyrrolo[2,1-f][1,2,4]triazin-4-amine]",1 to 24,B (B = 26-45% inhibition)
A (A = 1-25% inhibition),A (A = 1-25% inhibition),0,0 (0 = 0% inhibition),A (A = 1-25% inhibition),"COc1cccnc1Nc1nc(-c2nccn2C)nn2cc(-c3ccn(C)n3)c(C)c12 [Compound 112, N-(3-Methoxypyridin-2-yl)-5-methyl-2-(1-methyl-1H-imidazol-2-yl)-6-(1-methyl-1H-pyrazol-3-yl)pyrrolo[2,1-f][1,2,4]triazin-4-amine]",0,D* (D* = 76-100% activation)
D (D = 76-100% inhibition),D (D = 76-100% inhibition),76 to 100,C (C = 50-75% inhibition),D (D = 76-100% inhibition),"Cc1c(-c2ccn(C(C)C)n2)cn2nc(-c3nccn3C)nc(Nc3nccc(OCCO)n3)c12 [Compound 121, 2-((2-((6-(1-Isopropyl-1H-pyrazol-3-yl)-5-methyl-2-(1-methyl-1H-imidazol-2-yl)pyrrolo[2,1-f][1,2,4]triazin-4-yl)amino)pyrimidin-4-yl)oxy)ethan-1-ol]",25 to 49,A (A = 1-25% inhibition)

# — patent US12459951B2, “Compounds that interact with RAS superfamily proteins for treatment of cancers, inflammatory diseases, rasopathies, and fibrotic disease” (SHY Therapeutics, LLC, priority 2022, dated 2025)
